The values that follow come from article PMC5620576 (Pharmaceutics, 2017).

In data set [1] the test system is β-N-acetylglucosaminidase (NAG). In words: Renal toxicity, β-N-acetylglucosaminidase (NAG) in rat urine after single IV dose. Format: in vivo. The following applies: after single IV 10 mg/kg Dox or equimolar DoxQ. The procedure: Urine samples from pharmacokinetics experiments were collected from metabolic cages at 0 h, 12 h, 24 h, and 48 h and stored at −20 °C until analysis. Concentrations of NAG urine samples were measured using an assay kit from ALPCO Diagnostics (Salem, NH, USA, cat. No. 73-1290050) on a Medica EasyRA automated clinical chemistry analyzer (Medica Corporation, Bedford, MA, USA).

Data set [2] deals with rat cardiac Troponin-I (cTnI). The data set can be described thus: Cardiac toxicity, serum cardiac Troponin-I (cTnI) ELISA after single IV dose. Format: in vivo. The following applies: for cTnI concentrations in serum: 12, 24 and 48 h after single IV 10 mg/kg Dox or equimolar DoxQ. The procedure: Samples were centrifuged to obtain the serum and stored at −20 °C in a freezer until analysis. On the day of the analysis, cTnI concentrations were measured in serum samples following the manufacturer’s instructions. The area under the effect curve (AUEC) was calculated for cTnI concentrations at 12–48 h post-dosing using the trapezoidal rule by WinNonlin® software.
On the technique in general: An ELISA detects its analyte on a solid surface through an enzyme-linked reagent.

Data set [3] can be described thus: in vivo. The following applies: male, Sprague-Dawley, rat, serum, po, 10 mg/kg, F, Dox after PO Dox 10 mg/kg, n = 3.
A short description of data set [4]: Renal toxicity, urinary output over 24 h after single IV dose. To be noted: 24 h after single IV 10 mg/kg Dox or equimolar DoxQ. Format: in vivo, rat. The procedure: The total urine volume excreted over 24 h post-dosing was compared to the total urine volume excreted over 24 h pre-dosing.
A short description of data set [5]: Pharmacokinetic study after IV administration, rat serum and urine. The following applies: for fe, fraction excreted unchanged in urine: administered compound intact in urine; for CLhepatic: n = 3, CLtot minus CLrenal.
A short description of data set [6]: Intestinal lymphatic delivery, mesenteric lymph duct cannulated rat model. Format: in vivo, male Sprague–Dawley rats. The following applies: over one hour after oral 10 mg/kg, n = 3. The source says:
The intestinal transport of DoxQ via lymphatics was examined in vivo by two methods.
Six male Sprague–Dawley rats (~300 g) were obtained from Charles River Labs (Montreal, QC, Canada) and given food (Purina Rat Chow 5001) and water ad libitum in the animal facility for at least three days before use. On the day of surgical operation, rats were anesthetized by isoflurane and the abdominal hair was shaved. Rats were maintained under inhaled anesthesia on a warm surgical table. A ~2.5 cm abdominal midline skin incision was made and extended through the musculature using blunt dissection beginning the incision at a point just above the xyphoid cartilage and proceeding distally. […] The lymph duct was isolated from the surrounding connective tissue and a small incision was made with a bent 23 G needle in the ventral wall of the lymph. A catheter was inserted through the incision and secured by placing a small cellulose patch with a drop of Vetbond^TM over the point of insertion into the lymph duct. When a gradual and continuous flow of lymph was observed, an initial lymph sample was collected into a normal microtube. […] Thereafter, lymph samples were collected over one hour after dosing. The animals were euthanized after the last lymph sample collection.

Details of data set [7]: method as in PMID 28462502. To be noted: in vitro; cited from earlier work.
Data set [8] relates to CYP1B1. Details: method as in PMID 28462502. The following applies: expression and catalytic activity; cited from earlier work.
For data set [9], the system named is CYP3A4. Details: method as in PMID 28462502. To be noted: in vitro; cited from earlier work.
The subject of data set [10] is P–gp-positive (MDCK–MDR) cells. Details: method as in PMID 28462502. The following applies: cited from earlier work.
In data set [11] the test system is rat cardiomyocytes. Also on record: method as in PMID 28462502. To be noted: cited from earlier work.
A short description of data set [12]: in vivo. To be noted: male, Sprague-Dawley, rat, iv, 10 mg/kg.
A short description of data set [13]: Predicted physicochemical properties (VCCLAB, MarvinSketch, GastroPlus). The following applies: predicted values. The protocol:
LogP and LogS values of DoxQ were predicted using an online computer software (VCCLAB, Virtual Computational Chemistry Laboratory). pKa, logP, logD at pH 7.4, intrinsic solubility, and solubility at pH 7.4 were calculated using MarvinSketch v. […] 9.0.0007 (Simulations Plus, Inc., Lancaster, CA, USA). […] The melting point of DoxQ was experimentally determined by MEL-TEMPII melting point apparatus from Laboratory Devices (Holliston, MA, USA).

For data set [14], the system named is triple negative murine breast cancer cell line. Details: method as in PMID 28462502. To be noted: cited from earlier work.
The test system of data set [15] is human cardiomyocytes. Also on record: method as in PMID 28462502. The following applies: cited from earlier work.
Where [16] appears, read: administered compound intact in rat serum, IV Dox 10 mg/kg or equimolar DoxQ, mean ± SEM.
Setting [17] is: IV Dox 10 mg/kg or equimolar DoxQ.
Setting [18] is: administered compound intact, IV Dox 10 mg/kg or equimolar DoxQ.
The mark [19] stands for this setting: male, Sprague-Dawley, rat, serum, iv, 10 mg/kg.

Broadly, the bioavailability is the share of a dose that reaches the circulation, judged against a reference dose that is usually intravenous. Lower therefore signals little systemic uptake. As usually defined, the AUC(0-inf) is the area under the concentration-time curve extrapolated to infinity. For orientation: AUC(0-t) means exposure summed from dosing to a finite time, without extrapolation to infinity. Low values mean low exposure, high ones high exposure. Broadly, the clearance is the rate of elimination divided by the concentration. A low value points to a low capacity for elimination. For orientation: half-life means the time needed for the level to fall by half in the phase considered. A higher half-life goes with slow decline. For orientation: Vd means the apparent volume that relates the amount in the body to the concentration in plasma or blood. What is called Vss is the apparent volume that relates the amount in the body to the concentration in plasma or blood. The low end stands for little distribution into tissue, the high end for wide distribution into tissue.

Several values for one entry are separate records, joined by “and”; a condition that tells them apart may be missing. Identical values can stand only once. Entries after “also recorded” stand apart in the source; their conditions may differ.

For the compound `COc1cccc2c1C(=O)c1c(O)c3c(c(O)c1C2=O)C[C@@](O)(C(=O)CO)C[C@@H]3O[C@H]1C[C@H](N)[C@H](O)[C@H](C)O1` [Dox, Doxorubicin], the “Cumulative amount of NAG excreted in urine” value in [1] is “higher cumulative amounts”. For the same compound, the “cTnI concentrations in serum” value in data set [2] is “increase in cTnI”. The bioavailability in [3] is about 8.5%. For the same compound, the “Total urine volume over 24 h” value in data set [4] is on record as “no significant difference”. The “F, bioavailability” value (Dox after PO Dox 10 mg/kg, n = 3) was determined as 8.57 ± 0.71%. Besides, the “Vss of Dox relative to Vss of DoxQ” value in [5] (IV, equimolar doses) is ~ 80 fold. In data set [5] (setting [16]), this compound returned a C0 of 24700 ± 14200 ng/mL and a Clast of 120 ± 30 ng/mL. Moreover, the “fe, fraction excreted unchanged in urine” value in data set [5] (setting [17]) is ~ 11% and 10.73 ± 3.14%. For the same compound, the CLhepatic in data set [5] (setting [18]) amounted to 39.2 ± 6 mL/min/kg. In [5] (setting [19]), this compound gave an area under the curve AUC(0-inf) of 4790 ± 1830 ng·h/mL, an AUC(0-t) of 3970 ± 700 ng·h/mL, a CL renal of 4.67 mL/min/kg and a clearance of 43.8 mL/min/kg. For the same compound, in [5] (setting [19]), the half-life is 4.69 ± 0.8 h and the k el is 4.44e-05 s⁻¹. In addition, the C0 in [5] (male, Sprague-Dawley, rat, serum, iv, 10 mg/kg, C0, administered compound intact in rat serum, IV Dox 10 mg/kg or equimolar DoxQ, mean ± SEM) is about 25000 ng/mL. The Vd in data set [5] (male, Sprague-Dawley, rat, serum, iv, 10 mg/kg, Vss, administered compound intact, IV Dox 10 mg/kg or equimolar DoxQ, mean ± SEM) turned out to be 6.35 ± 2.11 L/kg.
In the case of `COc1cccc2c1C(=O)c1c(O)c3c(c(O)c1C2=O)CC(O)(C(=O)CO)CC3OC1CC(NC(=O)CNC(=O)Oc2ccc(-c3oc4cc(O)cc(O)c4c(=O)c3O)cc2O)C(O)C(C)O1` (centres unmarked) [DoxQ], in data set [6], the “Cumulative amount of Dox in mesenteric lymph fluid, compared to after Dox” value is on record as “twice as high; also recorded: two-fold higher”. Besides, in data set [1] (10 mg/kg), the “Cumulative amount of NAG excreted in urine” value was “lower after IV DoxQ than Dox”. Besides, the “Release of Dox and quercetin from DoxQ” value in data set [7] was “controlled release of both Dox and quercetin released from DoxQ over four days”. For the same compound, in [8], the “Effect on CYP1B1” value is on record as “inhibitory effects”. Moreover, the “Inhibition of CYP3A4” value in data set [9] is “inhibited”. Besides, in data set [2] (10 mg/kg), the “cTnI concentrations in serum” value is given as “also had an increase in cTnI at each time point”. Moreover, the “AUEC of cTnI concentrations” value in data set [2] (12–48 h after single IV 10 mg/kg Dox or equimolar DoxQ) is on record as “lower than the AUEC after Dox”. For the same compound, the “Cellular uptake compared to free Dox” value in data set [10] is given as “higher cellular uptake”. In addition, the “Toxicity to cardiomyocytes compared to Dox” value in data set [11] is recorded as “less toxic; also recorded: less cardiotoxic than Dox”. In data set [12], this compound had an AUC(0-t) of 18600 ± 1980 ng·h/mL, a CL renal of 0.333 mL/min/kg, a clearance of 8.83 mL/min/kg and a half-life of 9.6 ± 18 min. For the same compound, the k el in data set [12] was 0.00127 s⁻¹. Also, the C0 in [12] (C0, administered compound intact in rat serum, IV Dox 10 mg/kg or equimolar DoxQ, mean ± SEM) is about 108000 ng/mL. The Vd in data set [12] (Vss, administered compound intact, IV Dox 10 mg/kg or equimolar DoxQ, mean ± SEM) came to 0.138 ± 0.015 L/kg. In addition, the “Total urine volume over 24 h” value in [4] was “no significant difference”. In addition, the “Intact DoxQ in serum after oral dosing” value (PO DoxQ) was “not detected”. In data set [13], the “LogP of DoxQ relative to Dox” value is given as 3–5 fold. Further, the “LogD7.4 of DoxQ relative to Dox” value in data set [13] (pH 7.4) is 25 fold. Further, the Anti-cancer activity result in [14] is listed as “retained anti-cancer activity”. Moreover, the “Toxicity to cardiomyocytes compared to Dox” value in data set [15] is “less toxic; also recorded: less cardiotoxic than Dox”. Besides, in data set [5] (IV, equimolar doses), the “AUC of intact DoxQ relative to AUC of Dox after Dox” value stood at 5 fold; the “C0 / serum concentration of intact DoxQ relative to Dox after Dox” value is 4–5 fold and 5 fold. Further, in data set [5] (setting [16]), the C0 worked out at 108000 ± 26400 ng/mL and the Clast turned out to be 1110 ± 170 ng/mL. Also, the “fe, fraction excreted unchanged in urine” value in data set [5] (setting [17]) was ~ 5% and 4.32 ± 1.005%. The compound further had a Vss in [5] (administered compound intact, IV Dox 10 mg/kg or equimolar DoxQ, mean ± SEM) of 0.08 ± 0.015 L/kg. For the same compound, the CLhepatic in data set [5] (setting [18]) came to 8.5 ± 1 mL/min/kg.
